Results reported in the NIST ThermoML archive (doi:10.1021/acs.jced.7b00674).
Numbers after ± are expanded uncertainties.

Experiments:
[1] = refractive index (Na D-line) (dimensionless); conditions: 298.15 K; 101.33 kPa; Liquid; Standard Abbe refractometry
[2] = 298.15 K; 101.33 kPa; Liquid; Vibrating tube method

Row | Structure (SMILES) | refractive index [1] | mass density [2]
1 | O [water] | 1.3324 ± 0.012 | –
2 | Cc1ccccc1 [toluene] | 1.4938 ± 0.012 | 862.1 ± 16 kg/m3
3 | CC(=O)C=C(C)C [4-methyl-3-penten-2-one] | 1.4416 ± 0.012 | 857.6 ± 16 kg/m3
4 | Cc1ccc(C)cc1 [1,4-dimethylbenzene] | 1.4931 ± 0.012 | 856.5 ± 16 kg/m3
5 | OC1CCCCC1 [cyclohexanol] | 1.4621 ± 0.012 | 961.5 ± 16 kg/m3
